Results: ChEMBL document CHEMBL6078666, “Discovery of Novel Coumarin Pleuromutilin Derivatives as Potent Anti-MRSA Agents” (J Med Chem, 2024)
In brackets after ≈: the same amount, converted by molar mass.

Assays:
Assay type in all cases: functional
Streptococcus pneumoniae [1] = assay: Ratio of MBC to MIC against penicillin-resistant Streptococcus pneumoniae ATCC 51916
Enterococcus faecium [2] = assay: Ratio of MBC to MIC against vancomycin-resistant Enterococcus faecium ATCC 51559
[3] = system: Staphylococcus epidermidis; assay: Ratio of MBC to MIC against Staphylococcus epidermidis ATCC 51625
Staphylococcus aureus [4] = assay: Antibacterial activity against methicillin-resistant Staphylococcus aureus ATCC 43300 assessed as bacterial growth inhibition measured after 20 hrs by broth dilution method
Streptococcus pneumoniae [5] = assay: Antibacterial activity against penicillin-resistant Streptococcus pneumoniae ATCC 51916 assessed as bacterial growth inhibition measured after 20 hrs by broth dilution method
Enterococcus faecium [6] = assay: Antibacterial activity against vancomycin-resistant Enterococcus faecium ATCC 700221 assessed as bacterial growth inhibition measured after 20 hrs by broth dilution method
Streptococcus pneumoniae [7] = assay: Ratio of MBC to MIC against penicillin-intermediate Streptococcus pneumoniae ATCC 49619
Staphylococcus aureus [8] = assay: Ratio of MBC to MIC against Staphylococcus aureus ATCC 43300
Enterococcus faecium [9] = assay: Ratio of MBC to MIC against vancomycin-resistant Enterococcus faecium ATCC 700221
[10] = system: Staphylococcus epidermidis; assay: Antibacterial activity against Staphylococcus epidermidis ATCC 51625 assessed as bacterial growth inhibition measured after 20 hrs by broth dilution method
Enterococcus faecium [11] = assay: Antibacterial activity against vancomycin-resistant Enterococcus faecium ATCC 51559 assessed as bacterial growth inhibition measured after 20 hrs by broth dilution method
Streptococcus pneumoniae [12] = assay: Antibacterial activity against penicillin-intermediate Streptococcus pneumoniae ATCC 49619 assessed as bacterial growth inhibition measured after 20 hrs by broth dilution method
Staphylococcus aureus [13] = assay: Antibacterial activity against methicillin-resistant Staphylococcus aureus ATCC 33591 assessed as bacterial growth inhibition measured after 20 hrs by broth dilution method
[14] = system: Staphylococcus epidermidis; assay: Ratio of MBC to MIC against methicillin-resistant Staphylococcus epidermidis clinical isolate 202409454
[15] = system: Staphylococcus epidermidis; assay: Antibacterial activity against methicillin-resistant Staphylococcus epidermidis clinical isolate 202409454 assessed as bacterial growth inhibition measured after 20 hrs by broth dilution method
Staphylococcus aureus [16] = assay: Antibacterial activity against methicillin-resistant Staphylococcus aureus clinical isolate 202311772 assessed as bacterial growth inhibition measured after 20 hrs by broth dilution method
[17] = system: Staphylococcus epidermidis; assay: Antibacterial activity against methicillin-resistant Staphylococcus epidermidis clinical isolate 202409139 assessed as bacterial growth inhibition measured after 20 hrs by broth dilution method
Enterococcus faecium [18] = assay: Antibacterial activity against vancomycin-resistant Enterococcus faecium clinical isolate 202308456 assessed as bacterial growth inhibition measured after 20 hrs by broth dilution method
Staphylococcus aureus [19] = assay: Ratio of MBC to MIC against methicillin-resistant Staphylococcus aureus clinical isolate 202311772
Enterococcus faecium [20] = assay: Ratio of MBC to MIC against vancomycin-resistant Enterococcus faecium clinical isolate 202308456
Staphylococcus aureus [21] = assay: Antibacterial activity against methicillin-resistant Staphylococcus aureus clinical isolate 202405157 assessed as bacterial growth inhibition measured after 20 hrs by broth dilution method
Staphylococcus aureus [22] = assay: Antibacterial activity against methicillin-resistant Staphylococcus aureus clinical isolate 202313160 assessed as bacterial growth inhibition measured after 20 hrs by broth dilution method

SMILES	Ratio (Streptococcus pneumoniae [1])	Ratio (Enterococcus faecium [2])	Ratio [3]	MIC (Staphylococcus aureus [4]) [µg/mL]	MIC (Streptococcus pneumoniae [5]) [µg/mL]	MIC (Enterococcus faecium [6]) [µg/mL]	Ratio (Streptococcus pneumoniae [7])	Ratio (Staphylococcus aureus [8])	Ratio (Enterococcus faecium [9])	MIC [10] [µg/mL]	MIC (Enterococcus faecium [11]) [µg/mL]	MIC (Streptococcus pneumoniae [12]) [µg/mL]	MIC (Staphylococcus aureus [13]) [µg/mL]	also measured
C=C[C@]1(C)C[C@@H](OC(=O)CSc2cc(=O)oc3ccc(C)cc23)[C@]2(C)[C@H](C)CC[C@]3(CCC(=O)[C@H]32)[C@@H](C)[C@@H]1O	>4	2	>4	0.125 (≈ 0.226 µM)	0.125 (≈ 0.226 µM)	0.25 (≈ 0.452 µM)	4	>4	4	0.063 (≈ 0.114 µM)	2 (≈ 3.62 µM)	0.25 (≈ 0.452 µM)	0.125 (≈ 0.226 µM)	–
C=C[C@]1(C)C[C@@H](OC(=O)CSCCOc2cc(=O)oc3cc(F)ccc23)[C@]2(C)[C@H](C)CC[C@]3(CCC(=O)[C@H]32)[C@@H](C)[C@@H]1O	–	2	>4	0.125 (≈ 0.208 µM)	0.125 (≈ 0.208 µM)	0.125 (≈ 0.208 µM)	>4	>4	>4	0.031 (≈ 0.0516 µM)	0.25 (≈ 0.416 µM)	0.25 (≈ 0.416 µM)	0.125 (≈ 0.208 µM)	–
C=C[C@]1(C)C[C@@H](OC(=O)CSCCOc2cc(=O)oc3ccc(Cl)cc23)[C@]2(C)[C@H](C)CC[C@]3(CCC(=O)[C@H]32)[C@@H](C)[C@@H]1O	–	>4	>4	0.5 (≈ 0.81 µM)	2 (≈ 3.24 µM)	1 (≈ 1.62 µM)	>4	>4	>4	0.125 (≈ 0.203 µM)	1 (≈ 1.62 µM)	4 (≈ 6.48 µM)	0.5 (≈ 0.81 µM)	–
C=C[C@]1(C)C[C@@H](OC(=O)CSc2cc(=O)oc3cc(F)ccc23)[C@]2(C)[C@H](C)CC[C@]3(CCC(=O)[C@H]32)[C@@H](C)[C@@H]1O	4	1	>4	0.063 (≈ 0.113 µM)	0.125 (≈ 0.225 µM)	0.031 (≈ 0.0557 µM)	2	4	1	0.031 (≈ 0.0557 µM)	0.031 (≈ 0.0557 µM)	0.063 (≈ 0.113 µM)	0.031 (≈ 0.0557 µM)	Ratio [14]: 2; MIC [15]: 0.063 µg/mL (≈ 0.113 µM); MIC (Staphylococcus aureus [16]): 0.031 µg/mL (≈ 0.0557 µM); MIC [17]: 0.125 µg/mL (≈ 0.225 µM); MIC (Enterococcus faecium [18]): 0.031 µg/mL (≈ 0.0557 µM); Ratio (Staphylococcus aureus [19]): 2; Ratio (Enterococcus faecium [20]): 1; MIC (Staphylococcus aureus [21]): 0.063 µg/mL (≈ 0.113 µM); MIC (Staphylococcus aureus [22]): 0.063 µg/mL (≈ 0.113 µM)
C=C[C@]1(C)C[C@@H](OC(=O)CSCCOc2cc(=O)oc3cc(Br)ccc23)[C@]2(C)[C@H](C)CC[C@]3(CCC(=O)[C@H]32)[C@@H](C)[C@@H]1O	–	2	>4	0.25 (≈ 0.378 µM)	0.25 (≈ 0.378 µM)	0.125 (≈ 0.189 µM)	>4	>4	2	0.125 (≈ 0.189 µM)	0.5 (≈ 0.756 µM)	0.125 (≈ 0.189 µM)	0.125 (≈ 0.189 µM)	–
C=C[C@]1(C)C[C@@H](OC(=O)CSCCOc2cc(=O)oc3ccc(F)cc23)[C@]2(C)[C@H](C)CC[C@]3(CCC(=O)[C@H]32)[C@@H](C)[C@@H]1O	–	4	>4	0.5 (≈ 0.832 µM)	1 (≈ 1.66 µM)	1 (≈ 1.66 µM)	>4	>4	>4	0.125 (≈ 0.208 µM)	8 (≈ 13.3 µM)	1 (≈ 1.66 µM)	0.5 (≈ 0.832 µM)	–
C=C[C@]1(C)C[C@@H](OC(=O)CSCCOc2cc(=O)oc3ccc(C)cc23)[C@]2(C)[C@H](C)CC[C@]3(CCC(=O)[C@H]32)[C@@H](C)[C@@H]1O	>4	1	>4	0.125 (≈ 0.209 µM)	0.25 (≈ 0.419 µM)	0.125 (≈ 0.209 µM)	2	>4	>4	0.125 (≈ 0.209 µM)	0.25 (≈ 0.419 µM)	0.063 (≈ 0.106 µM)	0.25 (≈ 0.419 µM)	–
C=C[C@]1(C)C[C@@H](OC(=O)CSCCOc2cc(=O)oc3ccc(OC)cc23)[C@]2(C)[C@H](C)CC[C@]3(CCC(=O)[C@H]32)[C@@H](C)[C@@H]1O	–	1	4	0.25 (≈ 0.408 µM)	0.125 (≈ 0.204 µM)	0.063 (≈ 0.103 µM)	>4	>4	>4	0.031 (≈ 0.0506 µM)	0.25 (≈ 0.408 µM)	0.125 (≈ 0.204 µM)	0.125 (≈ 0.204 µM)	–
